In patent US20250268859A1, “OXAFURAMINE, (1R)-N-ETHYL-1-[(2R)-OXOLAN-2-YL]-2-[…], HYDROCHLORIDE AND DERIVATIVES THEREOF FOR TREATING ALZHEIMER'S DISEASE (AD), […] […], […] WITH LEWY BODIES (DLB), MIXED […], FRON[…] DEGENERATION (FTLD), AND PARKINSON'S DISEASE (PD)” (NLS Pharmaceutics AG, priority 2021, published 2025):

What was measured:
M1 (h) = molecular target: T1, M1 (h) (Homo sapiens, UniProt P11229); experiment: Radioligand binding panel, M1 (h) (antagonist radioligand); settings: % inhibition of control specific binding
T1 construct: Eurofins (contract panel)
T1 sequence (P11229 1-460): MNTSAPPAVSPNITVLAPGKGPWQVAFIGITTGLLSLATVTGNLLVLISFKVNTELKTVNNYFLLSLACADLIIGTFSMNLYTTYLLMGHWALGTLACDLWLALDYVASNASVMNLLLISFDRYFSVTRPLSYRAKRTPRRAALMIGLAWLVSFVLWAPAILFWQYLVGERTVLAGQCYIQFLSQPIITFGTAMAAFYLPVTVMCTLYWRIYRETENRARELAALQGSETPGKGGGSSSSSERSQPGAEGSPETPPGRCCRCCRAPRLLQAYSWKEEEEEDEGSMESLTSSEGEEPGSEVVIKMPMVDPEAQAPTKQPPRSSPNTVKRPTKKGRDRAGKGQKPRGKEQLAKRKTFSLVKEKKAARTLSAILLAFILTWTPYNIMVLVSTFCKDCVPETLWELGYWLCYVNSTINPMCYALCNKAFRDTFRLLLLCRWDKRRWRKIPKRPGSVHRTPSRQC
Description: (§1) Oxafuramine is tested at 10^−5 M, calculated as a % inhibition of control specific binding of a radioactively labeled ligand specific for each target.
(§2) This binding profile panel was broadly defined with roughly an equal number of selective, central and peripheral therapeutically relevant targets, including native animal tissues, radioligands and specific enzymes involved in cell cycle regulation in accordance with Eurofins Standard Operating Procedure (www.eurofins.fr).
(§3) For radioligand binding experiments, the half maximal inhibitory concentration (IC50) and the half maximal effective concentration (EC50) values were determined (via computer software) by nonlinear regression analysis of the competition curves using Hill equation curve fitting. The inhibition constants (Ki) were calculated using the Cheng-Prusoff equation (Ki=IC50/(1+(L/KD)), where L is the concentration of radioligand in the assay, and KD is the affinity of the radioligand for the receptor.
(§4) The results are expressed as a % control specific binding ([measured specific binding/control specific binding]×100) and as a % inhibition of control specific binding (100−[(measured specific binding/control specific binding)×100]) obtained in the presence of the test compounds. […]

[1] = Body weight of the mice in the NOR study; assay type: in vivo, C57BL/6J, male; settings: mean, N = 16
Excerpt: Statistical analyses: • Read-outs: DI, N-F, ST, CT, N, F • Unpaired Student's t test: Donep 2 group vs. Control group. • One-way ANOVA, Dunnett test: • NLS-12 groups vs. Control group. • NLS-12 groups vs. Donep 2 group. • Read-outs: DI and N-F, for all groups, paired Student's t test, difference vs. 0. • Body weight: one-way ANOVA.

M4 (h) = molecular target: T2, M4 (h) (Homo sapiens, UniProt P08173); experiment: Radioligand binding panel, M4 (h) (antagonist radioligand); settings: % inhibition of control specific binding
T2 construct: Eurofins (contract panel)
T2 sequence (P08173 1-479): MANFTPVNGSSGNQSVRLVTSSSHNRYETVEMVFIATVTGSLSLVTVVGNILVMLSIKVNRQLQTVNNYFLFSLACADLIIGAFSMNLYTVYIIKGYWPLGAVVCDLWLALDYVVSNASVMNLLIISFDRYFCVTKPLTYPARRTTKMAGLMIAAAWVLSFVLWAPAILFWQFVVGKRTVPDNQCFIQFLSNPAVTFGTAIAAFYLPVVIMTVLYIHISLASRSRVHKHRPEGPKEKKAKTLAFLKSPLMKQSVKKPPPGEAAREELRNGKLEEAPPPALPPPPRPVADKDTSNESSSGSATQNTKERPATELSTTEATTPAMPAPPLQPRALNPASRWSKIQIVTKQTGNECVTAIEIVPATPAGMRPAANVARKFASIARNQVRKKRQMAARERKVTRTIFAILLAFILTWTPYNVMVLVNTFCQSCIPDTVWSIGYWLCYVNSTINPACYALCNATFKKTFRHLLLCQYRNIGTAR
Description: as §1, §2, §3, §4

Structure (SMILES): CCN[C@H](Cc1ccccc1)[C@H]1CCCO1 [Oxafuramine, (1R)—N-ethyl-1-[(2R)-oxolan-2-yl]-2-phenylethanamine]
- inhibition at 10 µM (M1 (h); 10^−5 M): ~30%
- % Inhibition at 10^−5M, M1 (h) (antagonist radioligand) (M1 (h)): 29.7%
- BW Body weight ([1]; NLS-12 1 mg/kg i.p. group): 22.8 g
- BW Body weight ([1]; NLS-12 4 mg/kg i.p. group): 23.5 g
- BW Body weight ([1]; NLS-12 8 mg/kg i.p. group): 22.9 g
- inhibition at 10 µM (M4 (h); 10^−5 M): ~51%
- % Inhibition at 10^−5M, M4 (h) (antagonist radioligand) (M4 (h)): 50.8%
